Laboratory results as given in patent publication US8461083B2, “Herbicidal compounds” (Syngenta Limited, priority 2008, dated 2013).

Assays:
Format in all cases: in vivo
Solanum nigrum (SOLNI) [1] = assay: Pre-emergence herbicidal glasshouse test; details: pre-emergence (sprayed after one day cultivation), evaluated after 13 days, 100=total damage to plant, 0=no damage to plant; for PRE Application SOLNI, damage to plant: 1000 g/ha; for pest or weed control at 1000 g/ha: Solanum nigrum, 312 h, read-out: PRE Application SOLNI, damage to plant
Protocol: (§1) Seeds of a variety of test species were sown in standard soil in pots (Alopecurus myosuroides (ALOMY), Setaria faberi (SETFA), Echinochloa crus-galli (ECHCG), Solanum nigrum (SOLNI) and Amaranthus retoflexus (AMARE)). After cultivation for one day (pre-emergence) or after 8 days cultivation (post-emergence) under controlled conditions in a glasshouse (at 24/16° C., day/night; 14 hours light; 65% humidity), the plants were sprayed with an aqueous spray solution derived from the formulation of the technical active ingredient in acetone/water (50:50) solution containing 0.5% Tween 20 (polyoxyethelyene sorbitan monolaurate, CAS RN 9005-64-5). Compounds were applied at 1000 g/ha. The test plants were then grown in a glasshouse under controlled conditions in a glasshouse (at 24/16° C., day/night; 14 hours light; 65% humidity) and watered twice daily. After 13 days for pre and post-emergence, the test was evaluated (100=total damage to plant; 0=no damage to plant).

[2] = system: Amaranthus retoflexus (AMARE); assay: Pre-emergence herbicidal glasshouse test; details: pre-emergence (sprayed after one day cultivation), evaluated after 13 days, 100=total damage to plant, 0=no damage to plant; for PRE Application AMARE, damage to plant: 1000 g/ha; for pest or weed control at 1000 g/ha: Amaranthus retroflexus, 312 h, read-out: PRE Application AMARE, damage to plant
Protocol: as §1

[3] = system: Alopecurus myosuroides (ALOMY); assay: Pre-emergence herbicidal glasshouse test; details: pre-emergence (sprayed after one day cultivation), evaluated after 13 days, 100=total damage to plant, 0=no damage to plant; for PRE Application ALOMY, damage to plant: 1000 g/ha; for pest or weed control at 1000 g/ha: Alopecurus myosuroides, 312 h, read-out: PRE Application ALOMY, damage to plant
Protocol: as §1

[4] = system: Echinochloa crus-galli (ECHCG); assay: Pre-emergence herbicidal glasshouse test; details: pre-emergence (sprayed after one day cultivation), evaluated after 13 days, 100=total damage to plant, 0=no damage to plant; for PRE Application ECHCG, damage to plant: 1000 g/ha; for pest or weed control at 1000 g/ha: Echinochloa crus-galli, 312 h, read-out: PRE Application ECHCG, damage to plant
Protocol: as §1

Setaria faberi (SETFA) [5] = assay: Pre-emergence herbicidal glasshouse test; details: pre-emergence (sprayed after one day cultivation), evaluated after 13 days, 100=total damage to plant, 0=no damage to plant; for PRE Application SETFA, damage to plant: 1000 g/ha; for pest or weed control at 1000 g/ha: Setaria faberi, 312 h, read-out: PRE Application SETFA, damage to plant
Protocol: as §1

Solanum nigrum (SOLNI) [6] = assay: Post-emergence herbicidal glasshouse test; details: post-emergence (sprayed after 8 days cultivation), evaluated after 13 days, 100=total damage to plant, 0=no damage to plant; for POST Application SOLNI, damage to plant: 1000 g/ha; for pest or weed control at 1000 g/ha: Solanum nigrum, 312 h, read-out: POST Application SOLNI, damage to plant
Protocol: as §1

[7] = system: Amaranthus retoflexus (AMARE); assay: Post-emergence herbicidal glasshouse test; details: post-emergence (sprayed after 8 days cultivation), evaluated after 13 days, 100=total damage to plant, 0=no damage to plant; for POST Application AMARE, damage to plant: 1000 g/ha; for pest or weed control at 1000 g/ha: Amaranthus retroflexus, 312 h, read-out: POST Application AMARE, damage to plant
Protocol: as §1

[8] = system: Alopecurus myosuroides (ALOMY); assay: Post-emergence herbicidal glasshouse test; details: post-emergence (sprayed after 8 days cultivation), evaluated after 13 days, 100=total damage to plant, 0=no damage to plant; for POST Application ALOMY, damage to plant: 1000 g/ha; for pest or weed control at 1000 g/ha: Alopecurus myosuroides, 312 h, read-out: POST Application ALOMY, damage to plant
Protocol: as §1

[9] = system: Echinochloa crus-galli (ECHCG); assay: Post-emergence herbicidal glasshouse test; details: post-emergence (sprayed after 8 days cultivation), evaluated after 13 days, 100=total damage to plant, 0=no damage to plant; for POST Application ECHCG, damage to plant: 1000 g/ha; for pest or weed control at 1000 g/ha: Echinochloa crus-galli, 312 h, read-out: POST Application ECHCG, damage to plant
Protocol: as §1

Setaria faberi (SETFA) [10] = assay: Post-emergence herbicidal glasshouse test; details: post-emergence (sprayed after 8 days cultivation), evaluated after 13 days, 100=total damage to plant, 0=no damage to plant; for POST Application SETFA, damage to plant: 1000 g/ha; for pest or weed control at 1000 g/ha: Setaria faberi, 312 h, read-out: POST Application SETFA, damage to plant
Protocol: as §1

SMILES	PRE Application SOLNI, damage to plant (Solanum nigrum (SOLNI) [1])	PRE Application AMARE, damage to plant [2]	PRE Application ALOMY, damage to plant [3]	PRE Application ECHCG, damage to plant [4]	PRE Application SETFA, damage to plant (Setaria faberi (SETFA) [5])	POST Application SOLNI, damage to plant (Solanum nigrum (SOLNI) [6])	POST Application AMARE, damage to plant [7]	POST Application ALOMY, damage to plant [8]	POST Application ECHCG, damage to plant [9]	POST Application SETFA, damage to plant (Setaria faberi (SETFA) [10])	pest or weed control at 1000 g/ha (Solanum nigrum (SOLNI) [1])	pest or weed control at 1000 g/ha [2]	pest or weed control at 1000 g/ha [3]	pest or weed control at 1000 g/ha [4]	pest or weed control at 1000 g/ha (Setaria faberi (SETFA) [5])	pest or weed control at 1000 g/ha (Solanum nigrum (SOLNI) [6])	pest or weed control at 1000 g/ha [7]	pest or weed control at 1000 g/ha [8]	pest or weed control at 1000 g/ha [9]	pest or weed control at 1000 g/ha (Setaria faberi (SETFA) [10])
O=C1CCCC(=O)C1C(=O)c1cc2cc(F)c(NC3CC3)nc2nc1C(F)(F)F [Compound 1.92, 2-[7-(cyclopropylamino)-6-fluoro-2-trifluoromethyl-[1,8]-naphthyridine-3-carbony]-cyclohexane-1,3-dione]	100	100	60	100	100	80	100	80	80	80										
O=C1CCCC(=O)C1C(=O)c1cc2ccc(=O)n(C3CCCC3)c2nc1C(F)(F)F [Compound 2.8, 2-{8-cyclopentyl-7-oxo-7,8-dihydro-2-trifluoromethyl-[1,8]-naphthyridine-3-carbony}-cyclohexane-1,3-dione]											90%	80%	30%	70%	70%	90%	70%	70%	80%	90%
Cc1ccc2cc(C(=O)C3C(=O)CCCC3=O)c(C(F)F)nc2n1 [Compound 1.85, 2-(2-difluoromethyl-7-methyl-[1,8]-naphthyridine-3-carbonyl)-cyclohexane-1,3-dione]											100%	90%	10%	100%	80%	80%	80%	50%	80%	80%
O=C1CCCC(=O)C1C(=O)c1cc2ccc(=O)n(CCF)c2nc1C(F)(F)F [Compound 2.11, 2-{8-(2-fluoroethyl)-7-oxo-7,8-dihydro-2-trifluoromethyl-[1,8]-naphthyridine-3-carbony}-cyclohexane-1,3-dione]	100	60	40	100	90	100	100	90	90	90										
CNc1nc2nc(C(F)(F)F)c(C(=O)C3C(=O)CCCC3=O)cc2cc1F [Compound 1.98, 2-[6-fluoro-7-methylamino-2-trifluoromethyl-[1,8]-naphthyridine-3-carbony]-cyclohexane-1,3-dione]											100%	100%	20%	100%	100%	40%	90%	70%	80%	80%
Cc1nc2nc(C(F)F)c(C(=O)C3C(=O)CCCC3=O)cc2cc1F [Compound 1.78, 2-(2-difluoromethyl-6-fluoro-7-methyl-[1,8]-naphthyridine-3-carbonyl)-cyclohexane-1,3-dione]											100%	100%	80%	100%	100%	80%	100%	60%	90%	90%
COCCn1c(=O)ccc2cc(C(=O)C3C(=O)CCCC3=O)c(C(F)(F)F)nc21 [Compound 2.22, 2-{8-(2-Methoxyethyl)-7-oxo-7,8-dihydro-2-trifluoromethyl-[1,8]-naphthyridine-3-carbony}-cyclohexane-1,3-dione]	100	100	100	100	100	90	80	80	80	80										
Cc1nc2nc(C(F)(F)OCC(F)(F)F)c(C(=O)C3C(=O)CCCC3=O)cc2cc1F [Compound 1.91, 2-[6-fluoro-7-methyl-2[(2,2,2-trifluoroethoxy)difluoromethyl]-[1,8]-naphthyridine-3-carbony]-cyclohexane-1,3-dione]	100	100	10	100	90	90	90	40	80	80										
Cc1c(F)cnc2nc(C(F)(F)F)c(C(=O)C3C(=O)C4CCC(C4)C3=O)cc12 (centres unmarked) [Compound 3.5, 3-[6-Fluoro-5-methyl-2-trifluoromethyl-[1,8]-naphthyridine-3-carbony]-bicyclo[3.2.1]octane-2,4-dione]											60%	20%	0%	50%	30%	80%	50%	0%	70%	70%
CC(CF)c1ccc2cc(C(=O)C3C(=O)C4CCC(C4)C3=O)c(C(F)(F)F)nc2n1 (centres unmarked) [Compound 3.11]	100	100	70	100	90	90	100	70	80	90										
COCc1nc2nc(C(F)(F)F)ccc2cc1C(=O)C1C(=O)CCCC1=O [Compound 1.100, 2-[2-(methoxymethyl)-7-trifluoromethyl-[1,8]-naphthyridine-3-carbony]-cyclohexane-1,3-dione]	100	100	20	100	100	80	90	40	80	80										
